Test results taken from patent US20240058308A1, “TREATMENT AND PREVENTION OF DRY MACULAR DEGENERATION” (The Regents of the University of Michigan, priority 2021, published 2024).
Like-named read-outs stand apart in the source and are kept apart here.

What was measured:
[1] = tested on: primary human fetal RPE (hfRPE) culture; assay: Autophagy induction by LC3 lipidation (LC3-II/LC3-I ratio) on Western blot; assay type: cell-based; details: 24 hours exposure, vs vehicle (DMSO)
Procedure: (§1) Cell cultures were exposed to each putative autophagy inducer at a concentration indicated in Table 1 for 24 hours, lysed with 36 μL of SDS sample buffer with β-mercaptoethanol, with 15 μg of lysate loaded on a 4-15% gradient gel followed by transfer to a PVDF membrane. Blots were incubated with 1:1000 of LC3A/B antibody (Cell Signaling Technology; #4108s, RRID:AB_2137703) overnight. Quantifying LC3-II/LC3-I ratio is a well-accepted method for det 306 ermining autophagy induction [Ref. 44; incorporated by reference in its entirety], and this ratio was quantified in a non-saturated, linear range using the Azure c500 Imaging System (Azure Biosystems, Dublin, CA, USA) and a combination of AzureSpot and ImageJ software. The data in FIG. 2A are not normalized, whereas the data in FIGS. 2b and 1c are normalized to the average combined value of the vehicle and drug groups within each experimental repeat. The extreme pigmentation of human fetal cultures, combined with the destruction of the LC3 epitope with melanin bleaching protocols, makes detection of LC3 by microscopy in hfRPE difficult. A range of LC3 staining and puncta quantification protocols specifically adapted to pigmented hfRPE culture were employed [Ref. 43; incorporated by reference in its entirety]. At least five fields of view were randomly chosen and analyzed per experimental replicate for LC3 immunocytochemistry.
To test for autophagy induction, lipidation of the core autophagy protein LC3 was measured by mobility shift on Western blots 24 hours after each compound was added to hfRPE cultures [Ref. 44; incorporated by reference in its entirety]. […] Of the more than 30 putative autophagy inducers tested, only five produced an increased ratio of LC3-II/LC3-I, consistent with increased autophagy (FIG. 2a).
Autophagy induction was measured by LC3-II/LC3-I Ratios on Western Blot (standard method for autophagy induction) (FIG. 18A-C). Drugs were applied to primary human RPE culture for 24 hours.

[2] = tested on: primary human fetal RPE (hfRPE) culture; assay: Autophagy induction by LC3 puncta formation (immunocytochemistry); assay type: cell-based; details: 24 hours exposure
Procedure: as §1
Autophagy induction was confirmed by assaying the formation of LC3-positive puncta (autophagosomes) by immunocytochemistry [Ref. 44; incorporated by reference in its entirety]. Puncta formation was quantified in automated/unbiased fashion using a customized macro in the Fiji/ImageJ platform [Ref. 43; incorporated by reference in its entirety].
Autophagy induction was measured by LC3 puncta on immunocytochemistry (standard method for autophagy induction) (FIG. 19). Drugs applied to primary human RPE culture for 24 hours.

primary hfRPE culture [3] = assay: Trans-epithelial electrical resistance (TEER), tight-junction integrity; assay type: cell-based
Procedure: (§2) TEER and cell death were measured [Ref 51; incorporated by reference in its entirety]. For cell death assays, maximum possible LDH release per Transwell was measured immediately after 2 μL of the final experimental supernate was taken. The Transwell and supernate was then treated with 0.2% Triton X-100 for 15 minutes at 37° C. followed by collection of an additional 2 μL of supernate. Each experimental LDH release value was first normalized to total LDH release from the vehicle condition. Additionally, all TEER and LDH release measurements were normalized to the vehicle group at the zero-hour timepoint.
(§3) To evaluate the safety of D4476 and FLBZ, trans-epithelial electrical resistance (TEER) was measured, a measure of tight-junction integrity, in RPE cultures after prolonged exposure to each compound. As well-formed tight-junctions require myriad cell processes to be optimally coordinated, assessing TEER provides an easily measurable, ongoing, and noninvasive marker for general RPE cell health [Ref. 45; incorporated by reference in its entirety]. […] Lactate dehydrogenase (LDH) release, a combined marker of necrotic and late-stage apoptotic cell death [Refs. 47,48; incorporated by reference in their entireties], was reduced compared to vehicle for all four verified RPE autophagy inducers (FIG. 3b). Exposure of RPE cultures to the oxidant tert-butyl hydroperoxide confirmed the ability of the assay to detect cell death (FIG. 10).
Transepithelial Electrical Resistance (TEER) was tested (FIGS. 16 and 17). TEER is a sensitive measure of toxicity (lower the TEER, the more toxic the drug is). Drugs were added daily and measurements made daily for at least 4-8 days.

primary hfRPE culture [4] = assay: Cytotoxicity by LDH release; assay type: cell-based, human; details: 24 hours exposure
Procedure: as §2
as §3, with “Exposure of RPE cultures to the oxidant tert-butyl hydroperoxide confirmed the ability of the assay to detect cell death (FIG. 10).” left out

[5] = tested on: primary human fetal RPE (hfRPE) culture; assay: Autophagy flux assay with NH4Cl lysosomal alkalinization; assay type: cell-based; details: inducer 22.5 hours, then 25 mM NH4Cl for final 1.5 hours
Procedure: Cultures were exposed to compounds or vehicle (DMSO) for 24 hours. […] (C) Autophagy flux assays. After application of inducers or vehicle (DMSO) for 22.5 hours, 25 mM of NH4Cl, a lysosomal alkalizing agent, or H2O were added for a final 1.5 hours to inhibit autophagy flux.
Increases in both LC3 lipidation and autophagosome formation could result from downstream blockade of autophagy at the lysosome.

RPE from mouse eyecups = assay: Ex vivo mouse eyecup autophagy induction (LC3II/LC3I ratio); details: mouse RPE/choroid eyecup, 24 hours; Torin 1-5 uM, FLBZ 12-60 uM
Procedure: FIG. 14. Effect of autophagy positive control Torin on RPE from mouse eyecups (DMSO as control). […] Mouse eyes were enucleated, the anterior segment vitreous, and retina were removed, leaving an eyecup with RPE/choroid exposed. […] RPE/Choroid eyecup was treated with 1 uM Torin1 in our previously established RPE cell culture media for 24 hours. n=4.
FIG. 15. Effect of Flubendazole on RPE from Mouse Eyecups (DMSO as control). Conditions with and without ammonium chloride (NH4Cl) help establish high autophagy flux rates. If true autophagy flux is happening, the LC3II/LC3I ratio should increase further upon addition of NH4Cl, as is the case here. DMSO− and FLBZ−, n=6, FLBZ+ and DMSO+ n=5. Flubendazole tested at 60 uM, lysates collected after 24 hours. Induction did occur in eyecups.
Given the inconsistent results with detecting autophagy induction using intravitreal injection of the positive control, Torin, experiments were conducted to determine whether the lack of responsiveness to intravitreal injections was a drug access issue or whether it was a species or animal vs. culture difference. Additional experiments utilized freshly isolated mouse eyecups with the retina removed to determine whether Torin (and FLBZ) induce autophagy in this context. […] The use of ammonium chloride in these experiments blocks lysosomal degradation.

[6] = Solubility assays of DMSO stock mixed with PBS (simulating the vitreous); assay type: physicochemical; details: Torin 1 mM stock mixed 1:1 with PBS; flubendazole 3 mM stock
Procedure: Experiments were conducted during development of embodiments herein to establish a positive control for autophagy induction. The direct mTOR inhibitor Torin1 was selected over rapamycin/sirolimus as the positive control, based on the capacity of Torin1 to induce autophagy in primary culture more strongly and more consistently than rapamycin. The experimental set-up involved injecting one eye with Torin and the other eye with the DMSO vehicle. Autophagy induction was measured at 4 different concentrations of Torin (500 nm, 5 um, 50 um, 500 um) and at 5 different timepoints after injection (1 day, 3 days, 7 days, 14 days, 28 days). […] Nevertheless, the ability of intravitreal injections of FLBZ to induce autophagy in the RPE was assessed. In preparation for injecting FLBZ intravitreally into mice, solubility assays were performed and the maximum amount of FLBZ that can be injected without it crashing out of solution in the vitreous was determined. […] This helped inform maximal concentrations of flubendazole that could be injected intravitreally. Four different concentrations were injected, up to the maximum solubility of FLBZ, and autophagy induction was assayed over a timeframe ranging from 1 week to 4 weeks after injection.

RPE of mouse eye = assay: Intravitreal injection in mouse eyes, autophagy by LC3II/LC3I ratio of lysates; assay type: in vivo; details: four concentrations up to 500 uM, multiple timepoints, DMSO in other eye
Procedure: Experiments were conducted during development of embodiments herein to assay for autophagy in the mouse eye. Experiments were conducted to measure autophagy by giving an intraperitoneal injection of leupeptin, followed by assaying for LC3 puncta in an RPE flatmount of a GFP-LC3 mouse. Background from GFP-LC3 debris deposited on the RPE when the retina was peeled off for the flat mount prevented signal detection. A biochemical assay was then employed for autophagy induction, measuring an increase in the lipidation of the autophagy core protein LC3 (lipidated LC3=LC3-II, unlipidated LC3=LC3-I, so higher LC3-II/LC3-I ratio indicates autophagy induction). Sufficient signal as obtained. […] Harvesting techniques were also optimized for collecting RPE from mouse eyes.
Experiments were conducted during development of embodiments herein to establish a positive control for autophagy induction. […] Autophagy induction was measured at 4 different concentrations of Torin (500 nm, 5 um, 50 um, 500 um) and at 5 different timepoints after injection (1 day, 3 days, 7 days, 14 days, 28 days). […] Nevertheless, the ability of intravitreal injections of FLBZ to induce autophagy in the RPE was assessed. In preparation for injecting FLBZ intravitreally into mice, solubility assays were performed and the maximum amount of FLBZ that can be injected without it crashing out of solution in the vitreous was determined. […]

primary hfRPE culture [7] = tested on: primary hfRPE culture
Procedure: (§4) Phagocytosis assays using bovine outer segments was performed using the “pulse-only” method [Ref 43; incorporated by reference in its entirety]. Values at the zero-hour timepoint were used for normalization.

primary hfRPE culture [8] = assay: Undigestible autofluorescent material (UAM) accumulation, elimination and granule size after oxOS feedings; assay type: cell-based, human; details: fed daily with oxOS over a month; FLBZ 12 μM, Torin 1 μM; vs vehicle
primary hfRPE culture [9] = assay: Outer segment (OS) phagocytosis efficiency (rhodopsin disappearance); details: bovine outer segments, pulse-only method
Procedure: as §4

[10] = prolonged exposure, drug or vehicle (DMSO) replaced daily

Compound | LC3-II/LC3-I ratio (autophagy induction) [1] | LC3 puncta formation (autophagy induction) [2] | TEER (toxicity), Example 3 (primary hfRPE culture [3]) | Autophagy flux: LC3-II/LC3-I ratio after NH4Cl [5] | other results
CC(C)(Sc1ccc(CCN(CCCCC2CCCCC2)C(=O)NC2CCCCC2)cc1)C(=O)O [GW7647] | Induction of autophagy |  |  |  | 
CCCCc1oc2ccccc2c1C(=O)c1cc(I)c(OCCN(CC)CC)c(I)c1 [Amiodarone] | Induction of autophagy |  |  |  | 
COc1cc2c(Oc3ccc4[nH]c(C)cc4c3F)ccnc2cc1OCC1(N)CC1 [anlotinib] | evidence for autophagy induction | confirming autophagy induction | No toxicity is observed |  | 
CC(C)(C)OO [tBHP, tert-butyl hydroperoxide] |  |  |  |  | LDH release after oxidant exposure (assay validation) (primary hfRPE culture [4]): marked increase in LDH release
CCC(=O)N1CCN(c2ccc(-n3c(=O)ccc4cnc5ccc(-c6cnc7ccccc7c6)cc5c43)cc2C(F)(F)F)CC1 [Torin, Torin1] | upregulate autophagy | induced autophagy |  | induces autophagy flux | TEER (tight-junction integrity) (primary hfRPE culture [3]): dramatically reduced TEER; Autophagy induction in eyecups (LC3II/LC3I ratio) (RPE from mouse eyecups): induces autophagy well; Precipitation of DMSO stock solution when mixed with PBS [6]: did not crash out; Autophagy induction in RPE after intravitreal injection (LC3II/LC3I ratio) (RPE of mouse eye): No concentration or time after injection provided convincing evidence for replicable autophagy induction; OS phagocytosis efficiency / OS degradative capacity (primary hfRPE culture [7]): reduces phagocytosis efficiency; UAM accumulation, drug fed concurrently with oxOS (primary hfRPE culture [8]): more UAM accumulation
O=C1NC(=O)/C(=C/c2ccc3nccc(-c4ccncc4)c3c2)S1 [GSK, GSK 1059615] | upregulate autophagy | induced autophagy |  | induces autophagy flux | TEER (tight-junction integrity) (primary hfRPE culture [3]; [10]): dramatically reduced TEER; OS phagocytosis efficiency / OS degradative capacity (primary hfRPE culture [7]): reduces phagocytosis efficiency
N#CC1(c2ccc(NC(=O)c3cccnc3NCc3ccncc3)cc2)CCCC1 [apatinib] | evidence for autophagy induction | confirming autophagy induction | No toxicity is observed |  | 
CCN(CC)CCNC(=O)c1c(C)[nH]c(/C=C2\C(=O)Nc3ccc(F)cc32)c1C [sunitinib] |  |  | No toxicity is observed |  | 
NC(=O)c1ccc(-c2nc(-c3ccc4c(c3)OCCO4)c(-c3ccccn3)[nH]2)cc1 [D4476] | Induction of autophagy | induced autophagy |  | induces autophagy flux | OS phagocytosis efficiency / OS degradative capacity (primary hfRPE culture [9]): no effect on OS degradative capacity; TEER (tight-junction integrity) (primary hfRPE culture [3]; [10]): more modest impact
O=C(NCC1(N2CCN(c3ccccc3)CC2)CCOCC1)c1cccnc1Sc1ccccc1 [JNJ, JNJ-47965567] | Induction of autophagy |  |  |  | 
